Results taken from PubChem BioAssay (NCI).
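Values below derive from 48-hour exposures of cells grown in 96-well plates, with endpoints linearly interpolated between the two concentrations bracketing the appropriate inhibition level. GI50 is the concentration that inhibits growth by half. TGI: concentration producing complete growth inhibition.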

Tests used:
Test in all cases: NCI anticancer screen, dose series, 48 h
MDA-MB-231 breast = test system: MDA-MB-231 breast
SR leukemia = test system: SR leukemia
HS 578T breast = test system: HS 578T breast
T-47D breast = test system: T-47D breast
PC-3 prostate = test system: PC-3 prostate
MOLT-4 leukemia = test system: MOLT-4 leukemia
NCI-H226 lung = test system: NCI-H226 lung
OVCAR-3 ovarian = test system: OVCAR-3 ovarian
U251 CNS = test system: U251 CNS
A549 NSCLC = test system: A549 NSCLC
MDA-MB-435 = test system: MDA-MB-435
KM12 colon = test system: KM12 colon
SK-MEL-5 melanoma = test system: SK-MEL-5 melanoma
A498 renal = test system: A498 renal
NCI-H522 lung = test system: NCI-H522 lung
HCT-15 colon = test system: HCT-15 colon
K-562 leukemia = test system: K-562 leukemia
NCI/ADR-RES ovarian = test system: NCI/ADR-RES ovarian
SF-295 CNS = test system: SF-295 CNS
IGROV1 ovarian = test system: IGROV1 ovarian
COLO 205 colon = test system: COLO 205 colon
786-0 renal = test system: 786-0 renal
NCI-H23 lung = test system: NCI-H23 lung
SF-539 CNS = test system: SF-539 CNS
SK-OV-3 ovarian = test system: SK-OV-3 ovarian
OVCAR-4 ovarian = test system: OVCAR-4 ovarian
LOX IMVI melanoma = test system: LOX IMVI melanoma
MALME-3M melanoma = test system: MALME-3M melanoma
MCF7 breast = test system: MCF7 breast
HCT-116 colon = test system: HCT-116 colon
SN12C renal = test system: SN12C renal
HOP-62 NSCLC = test system: HOP-62 NSCLC
SNB-75 CNS = test system: SNB-75 CNS
BT-549 breast = test system: BT-549 breast
SF-268 CNS = test system: SF-268 CNS
M14 melanoma = test system: M14 melanoma
RXF 393 renal = test system: RXF 393 renal
TK-10 renal = test system: TK-10 renal
SK-MEL-2 melanoma = test system: SK-MEL-2 melanoma
UACC-62 melanoma = test system: UACC-62 melanoma
HCC-2998 colon = test system: HCC-2998 colon
HT29 colon = test system: HT29 colon
DU-145 prostate = test system: DU-145 prostate
ACHN renal = test system: ACHN renal
SW-620 colon = test system: SW-620 colon
RPMI-8226 leukemia = test system: RPMI-8226 leukemia
SNB-19 CNS = test system: SNB-19 CNS
EKVX NSCLC = test system: EKVX NSCLC
SK-MEL-28 melanoma = test system: SK-MEL-28 melanoma
NCI-H460 lung = test system: NCI-H460 lung
UACC-257 melanoma = test system: UACC-257 melanoma
HOP-92 NSCLC = test system: HOP-92 NSCLC
CCRF-CEM leukemia = test system: CCRF-CEM leukemia
CAKI-1 renal = test system: CAKI-1 renal
UO-31 renal = test system: UO-31 renal
HL-60(TB) leukemia = test system: HL-60(TB) leukemia
OVCAR-8 ovarian = test system: OVCAR-8 ovarian
OVCAR-5 ovarian = test system: OVCAR-5 ovarian

SMILES: Cc1nc(C(=O)OCc2ccccc2)cc(OCc2ccccc2)c1C
- GI50 (MDA-MB-231 breast): 14.6 µM
- TGI (MDA-MB-231 breast): 34.9 µM
- TGI (SR leukemia): 28.6 µM
- GI50 (HS 578T breast): 18.6 µM
- TGI (HS 578T breast): 47.9 µM
- GI50 (T-47D breast): 18.8 µM
- TGI (T-47D breast): > 100 µM
- GI50 (PC-3 prostate): 21 µM
- TGI (PC-3 prostate): > 69.8 µM
- GI50 (MOLT-4 leukemia): 0.517 µM
- TGI (MOLT-4 leukemia): 7.53 µM
- GI50 (NCI-H226 lung): 19.1 µM
- TGI (NCI-H226 lung): 46.9 µM
- GI50 (OVCAR-3 ovarian): 11.4 µM
- TGI (OVCAR-3 ovarian): 26.2 µM
- GI50 (U251 CNS): 17.6 µM
- TGI (U251 CNS): 48.2 µM
- GI50 (A549 NSCLC): 19.3 µM
- TGI (A549 NSCLC): 49.4 µM
- GI50 (MDA-MB-435): 18.5 µM
- TGI (MDA-MB-435): > 54.6 µM
- GI50 (KM12 colon): 29 µM
- TGI (KM12 colon): > 87.6 µM
- GI50 (SK-MEL-5 melanoma): 10.7 µM
- TGI (SK-MEL-5 melanoma): 26 µM
- GI50 (A498 renal): 27.9 µM
- TGI (A498 renal): > 85.6 µM
- GI50 (NCI-H522 lung): 15.5 µM
- TGI (NCI-H522 lung): 37 µM
- GI50 (HCT-15 colon): 18.6 µM
- TGI (HCT-15 colon): > 60.6 µM
- GI50 (K-562 leukemia): 8.8 µM
- TGI (K-562 leukemia): 36.8 µM
- GI50 (NCI/ADR-RES ovarian): 14.1 µM
- TGI (NCI/ADR-RES ovarian): 37.4 µM
- GI50 (SF-295 CNS): 19.7 µM
- TGI (SF-295 CNS): 46.8 µM
- GI50 (IGROV1 ovarian): 21.4 µM
- TGI (IGROV1 ovarian): 47.7 µM
- GI50 (COLO 205 colon): 22.6 µM
- TGI (COLO 205 colon): 65.1 µM
- GI50 (786-0 renal): 21.2 µM
- TGI (786-0 renal): 50.9 µM
- GI50 (NCI-H23 lung): 15.3 µM
- TGI (NCI-H23 lung): 36.8 µM
- GI50 (SF-539 CNS): 18.1 µM
- TGI (SF-539 CNS): 35.2 µM
- GI50 (SK-OV-3 ovarian): > 89 µM
- TGI (SK-OV-3 ovarian): > 100 µM
- GI50 (OVCAR-4 ovarian): 11.8 µM
- TGI (OVCAR-4 ovarian): 33.6 µM
- GI50 (LOX IMVI melanoma): 17.1 µM
- TGI (LOX IMVI melanoma): 36 µM
- GI50 (MALME-3M melanoma): 24.4 µM
- TGI (MALME-3M melanoma): 52.1 µM
- GI50 (MCF7 breast): 18.3 µM
- TGI (MCF7 breast): 43.2 µM
- GI50 (HCT-116 colon): 13.6 µM
- TGI (HCT-116 colon): 32.6 µM
- GI50 (SN12C renal): 17.5 µM
- TGI (SN12C renal): 35.4 µM
- GI50 (HOP-62 NSCLC): 19.9 µM
- TGI (HOP-62 NSCLC): 40.7 µM
- GI50 (SNB-75 CNS): 17.5 µM
- TGI (SNB-75 CNS): 39.4 µM
- GI50 (BT-549 breast): 17.9 µM
- TGI (BT-549 breast): 34.2 µM
- GI50 (SF-268 CNS): 17.5 µM
- TGI (SF-268 CNS): 41.6 µM
- GI50 (M14 melanoma): 19.8 µM
- TGI (M14 melanoma): 40.3 µM
- GI50 (RXF 393 renal): 13.5 µM
- TGI (RXF 393 renal): 28 µM
- GI50 (TK-10 renal): 50.4 µM
- TGI (TK-10 renal): > 100 µM
- GI50 (SK-MEL-2 melanoma): 26.4 µM
- TGI (SK-MEL-2 melanoma): > 84.5 µM
- GI50 (UACC-62 melanoma): 11 µM
- TGI (UACC-62 melanoma): 24.8 µM
- GI50 (HCC-2998 colon): 20.5 µM
- TGI (HCC-2998 colon): 54.1 µM
- GI50 (HT29 colon): 13.1 µM
- TGI (HT29 colon): 29.3 µM
- GI50 (DU-145 prostate): 17 µM
- TGI (DU-145 prostate): 41.4 µM
- GI50 (ACHN renal): 20.9 µM
- TGI (ACHN renal): 60.2 µM
- GI50 (SW-620 colon): 17.8 µM
- TGI (SW-620 colon): 44.2 µM
- GI50 (RPMI-8226 leukemia): 20.9 µM
- TGI (RPMI-8226 leukemia): > 72.7 µM
- GI50 (SNB-19 CNS): 27.8 µM
- TGI (SNB-19 CNS): > 82.8 µM
- GI50 (EKVX NSCLC): 19.3 µM
- TGI (EKVX NSCLC): 52.7 µM
- GI50 (SK-MEL-28 melanoma): 15.5 µM
- TGI (SK-MEL-28 melanoma): 29.8 µM
- GI50 (NCI-H460 lung): 22.7 µM
- TGI (NCI-H460 lung): 54.5 µM
- GI50 (UACC-257 melanoma): 18.8 µM
- TGI (UACC-257 melanoma): 38.3 µM
- GI50 (HOP-92 NSCLC): 14.7 µM
- TGI (HOP-92 NSCLC): 30.8 µM
- GI50 (CCRF-CEM leukemia): 20.5 µM
- TGI (CCRF-CEM leukemia): 62.1 µM
- GI50 (CAKI-1 renal): 32.6 µM
- TGI (CAKI-1 renal): > 100 µM
- GI50 (UO-31 renal): 18.3 µM
- TGI (UO-31 renal): 39 µM
- GI50 (HL-60(TB) leukemia): 1.53 µM
- TGI (HL-60(TB) leukemia): 25 µM
- GI50 (OVCAR-8 ovarian): 21.9 µM
- TGI (OVCAR-8 ovarian): 69.2 µM
- GI50 (OVCAR-5 ovarian): 21.8 µM
- TGI (OVCAR-5 ovarian): 51.6 µM
